The target in the assay is Sodium-dependent serotonin transporter (Homo sapiens, UniProt P31645).
Sodium-dependent serotonin transporter, sequence (P31645 whole entry): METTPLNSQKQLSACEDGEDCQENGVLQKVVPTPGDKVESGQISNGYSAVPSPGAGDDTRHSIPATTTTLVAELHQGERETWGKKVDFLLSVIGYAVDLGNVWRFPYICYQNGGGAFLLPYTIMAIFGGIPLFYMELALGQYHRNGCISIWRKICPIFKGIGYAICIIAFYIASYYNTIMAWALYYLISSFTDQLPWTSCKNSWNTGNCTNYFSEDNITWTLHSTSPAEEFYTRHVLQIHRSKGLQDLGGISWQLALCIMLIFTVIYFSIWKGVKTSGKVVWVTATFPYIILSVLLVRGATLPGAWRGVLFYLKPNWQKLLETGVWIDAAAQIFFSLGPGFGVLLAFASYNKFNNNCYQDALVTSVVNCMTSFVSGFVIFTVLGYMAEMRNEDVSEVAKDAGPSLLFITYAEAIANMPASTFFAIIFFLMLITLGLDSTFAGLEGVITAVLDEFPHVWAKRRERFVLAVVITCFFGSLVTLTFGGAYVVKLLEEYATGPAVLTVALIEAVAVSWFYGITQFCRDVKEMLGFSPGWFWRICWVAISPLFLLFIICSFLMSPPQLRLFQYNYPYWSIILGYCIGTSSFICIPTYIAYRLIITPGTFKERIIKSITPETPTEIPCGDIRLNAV

As usually defined, the Ki is a dissociation constant, usually derived from enzyme kinetics or from competition with a known ligand. High values mean lower affinity, low ones higher affinity. `CC(N)Cc1ccc2c(c1)OCO2` (configuration not stated): the Ki was over 10 µM.
In the case of `CN[C@@H](C)Cc1ccc2c(c1)OCO2` [DL-(3,4-Methylenedioxy)methamphetamine] it was over 10 µM.

Values taken from BindingDB's records for doi:10.1124/jpet.104.069260 (University of Texas At Austin, 2004).
